Data: US12110293B2, “Substituted triazolo quinoxaline derivatives” (GRÜNENTHAL GMBH, priority 2018, dated 2024)

Target: T1, glucocorticoid receptor (Homo sapiens, UniProt P04150)
T1 construct: expressed in transfected cells
T1 sequence (P04150 524-758 limits assumed): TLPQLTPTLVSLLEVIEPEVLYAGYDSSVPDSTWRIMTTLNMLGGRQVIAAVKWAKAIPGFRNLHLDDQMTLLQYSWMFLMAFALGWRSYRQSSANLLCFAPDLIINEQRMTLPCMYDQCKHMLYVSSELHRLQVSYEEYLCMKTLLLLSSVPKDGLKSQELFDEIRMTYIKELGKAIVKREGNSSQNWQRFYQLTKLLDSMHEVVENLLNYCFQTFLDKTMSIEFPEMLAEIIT
Assay: Agonistic mode of action on the glucocorticoid receptor (CHO-Gal4/GR luciferase reporter cell line)
Type: cell-based
Conditions: range class observed in the agonistic assay or the antagonistic assay (CHO-Gal4/GR reporter cells); table does not say which mode applies per example
Procedure, shortened: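 Agonism measured as dose-dependent luciferase luminescence (FLIPR Tetra) from a GAL4-UAS reporter driven by GAL4 DBD fused to GR ligand-binding domain in stable CHO cells. Eight half-log doses, 10 μM to 0.003 μM final in 0.5% DMSO, quadruplicate, on cells seeded 24 h earlier at 5000/well; EC50 derived.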

Question: For `Cc1cc(-c2c(F)cc3c(c2C(F)F)-n2c(C)nnc2C(C)(C)N3)c2ccn(S(C)(=O)=O)c2c1` [Example 478, 9-(Difluoro-methyl)-7-fluoro-1,4,4-trimethyl-8-(6-methyl-1-methylsulfonyl-1H-indol-4-yl)-5H-[1,2,4]triazolo[4,3-a]quinoxaline], which IC50 or EC50 (agonist or antagonist mode not specified) is on record?
Answer: 0.1 to 1 µM

Question: For `Cc1nnc2n1-c1c(cc(F)c(-c3cccc4c3cnn4C)c1F)NC2(C)C` [Example 221, 7,9-Difluoro-1,4,4-trimethyl-8-(1-methyl-1H-indazol-4-yl)-5H-[1,2,4]triazolo[4,3-a]quinoxaline], which IC50 or EC50 (agonist or antagonist mode not specified) is on record?
Answer: 0.1 to 1 µM

Question: With `CC#Cc1c[nH]c2c(-c3c(F)cc4c(c3C)-n3c(CCOC)nnc3C(C)(C)N4)cc(F)cc12` [Example 79, 7-fluoro-8-(5-fluoro-3-(prop-1-yn-1-yl)-1H-indol-7-yl)-1-(2-methoxyethyl)-4,4,9-trimethyl-4,5-dihydro-[1,2,4]triazolo[4,3-a]quinoxaline] as the compound, how does the IC50 or EC50 (agonist or antagonist mode not specified) read?
Answer: 1 to 15 µM

Question: For `Cc1nnc2n1-c1c(cc(F)c(-c3cccc4c(C#N)c[nH]c34)c1C(F)(F)F)NC2(C)C` [Example 89, 7-(7-fluoro-1,4,4-trimethyl-9-(trifluoromethyl)-4,5-dihydro-[1,2,4]triazolo[4,3-a]quinoxalin-8-yl)-1H-indole-3-carbonitrile], which IC50 or EC50 (agonist or antagonist mode not specified) is on record?
Answer: 0.1 to 1 µM

Question: For `COCCn1ccc2c(-c3c(F)cc4c(c3F)-n3c(C)nnc3C(C)(C)N4)cccc21` [Example 204, 7,9-Difluoro-8-[1-(2-methoxy-ethyl)-1H-indol-4-yl]-1,4,4-trimethyl-5H-[1,2,4]triazolo[4,3-a]quinoxaline], which IC50 or EC50 (agonist or antagonist mode not specified) is on record?
Answer: 0.1 to 1 µM

Question: With `CC#Cc1c[nH]c2c(-c3c(F)cc4c(c3C)-n3c(CO)nnc3C(C)(C)N4)cc(F)cc12` [Example 77, (7-fluoro-8-(5-fluoro-3-(prop-1-yn-1-yl)-1H-indol-7-yl)-4,4,9-trimethyl-4,5-dihydro-[1,2,4]triazolo[4,3-a]quinoxalin-1-yl)methanol] as the compound, how does the IC50 or EC50 (agonist or antagonist mode not specified) read?
Answer: 0.1 to 1 µM

Question: For `Cc1c(-c2cc(F)cc3c2ccn3C)c(Cl)cc2c1-n1c(C)nnc1C(C)(C)N2` [Example 519, 7-Chloro-8-(6-fluoro-1-methyl-1H-indol-4-yl)-1,4,4,9-tetramethyl-5H-[1,2,4]triazolo[4,3-a]quinoxaline], which IC50 or EC50 (agonist or antagonist mode not specified) is on record?
Answer: < 0.1 µM

Question: For `Cc1c(-c2cc(F)cc3c2ccn3CCO)ccc2c1-n1c(C)nnc1C(C)(C)N2` [Example 451, 2-[6-Fluoro-4-(1,4,4,9-tetramethyl-5H-[1,2,4]triazolo[4,3-a]quinoxalin-8-yl)-1H-indol-1-yl]-ethanol], which IC50 or EC50 (agonist or antagonist mode not specified) is on record?
Answer: 0.1 to 1 µM

Question: With `CCc1c(-c2cc(F)cc3c(C)c[nH]c23)c(F)cc2c1-n1c(C)nnc1C(C)(C)N2` [Example 47, 9-Ethyl-7-fluoro-8-(5-fluoro-3-methyl-1H-indol-7-yl)-1,4,4-trimethyl-5H-[1,2,4]triazolo[4,3-a]quinoxaline] as the compound, how does the IC50 or EC50 (agonist or antagonist mode not specified) read?
Answer: < 0.1 µM

Question: Which IC50 or EC50 (agonist or antagonist mode not specified) does the source give for `Cc1c(-c2cccc3c(CC(F)(F)F)c[nH]c23)c(F)cc2c1-n1c(C)nnc1C(C)(C)N2` [Example 24, 7-fluoro-1,4,4,9-tetramethyl-8-(3-(2,2,2-trifluoroethyl)-1H-indol-7-yl)-4,5-dihydro-[1,2,4]triazolo[4,3-a]quinoxaline] here?
Answer: < 0.1 µM

Question: `Cc1c(-c2cccc3c2ccn3C2CC2)c(F)cc2c1-n1c(C)nnc1C(C)(C)N2` [Example 27, 8-(1-cyclopropyl-1H-indol-4-yl)-7-fluoro-1,4,4,9-tetramethyl-4,5-dihydro-[1,2,4]triazolo[4,3-a]quinoxaline] was tested. Which IC50 or EC50 (agonist or antagonist mode not specified) did it give?
Answer: < 0.1 µM

Question: For `COc1cc2c(c(F)c1-c1cccc3c(C)c[nH]c13)-n1c(C)nnc1C(C)(C)N2` [Example 266, 9-Fluoro-7-methoxy-1,4,4-trimethyl-8-(3-methyl-1H-indol-7-yl)-5H-[1,2,4]triazolo[4,3-a]quinoxaline], which IC50 or EC50 (agonist or antagonist mode not specified) is on record?
Answer: 0.1 to 1 µM

Question: How did the IC50 or EC50 (agonist or antagonist mode not specified) turn out when `COc1cc2c(c(C(F)(F)F)c1-c1cccc3c1ccn3S(C)(=O)=O)-n1c(C)nnc1C(C)(C)N2` [Example 310, 7-Methoxy-1,4,4-trimethyl-8-(1-methylsulfonyl-1H-indol-4-yl)-9-(trifluoromethyl)-5H-[1,2,4]triazolo[4,3-a]quinoxaline] was run?
Answer: 0.1 to 1 µM

Question: How did the IC50 or EC50 (agonist or antagonist mode not specified) turn out when `COc1c(-c2cccc3c(C)n[nH]c23)c(F)cc2c1-n1c(C)nnc1C(C)(C)N2` [Example 381, 7-Fluoro-9-methoxy-1,4,4-trimethyl-8-(3-methyl-1H-indazol-7-yl)-5H-[1,2,4]triazolo[4,3-a]quinoxaline] was run?
Answer: 1 to 15 µM

Question: How did the IC50 or EC50 (agonist or antagonist mode not specified) turn out when `Cc1nnc2n1-c1c(ccc(-c3cc(F)cc4c3ccn4C)c1C(F)(F)F)NC2(C)C` [Example 522, 8-(6-Fluoro-1-methyl-1H-indol-4-yl)-1,4,4-trimethyl-9-(trifluoro-methyl)-5H-[1,2,4]triazolo[4,3-a] quinoxaline] was run?
Answer: 0.1 to 1 µM

Question: Which IC50 or EC50 (agonist or antagonist mode not specified) does the source give for `Cc1nnc2n1-c1c(cc(F)c(-c3cc(F)cc4c3ccn4CC(F)(F)F)c1F)NC2(C)C` [Example 21, 7,9-difluoro-8-(6-fluoro-1-(2,2,2-trifluoroethyl)-1H-indol-4-yl)-1,4,4-trimethyl-4,5-dihydro-[1,2,4]triazolo[4,3-a]quinoxaline] here?
Answer: 0.1 to 1 µM

Question: Which IC50 or EC50 (agonist or antagonist mode not specified) does the source give for `COCCn1ccc2c(-c3c(C(F)F)cc4c(c3F)-n3c(C)nnc3C(C)(C)N4)cccc21` [Example 295, 7-(Difluoro-methyl)-9-fluoro-8-[1-(2-methoxy-ethyl)-1H-indol-4-yl]-1,4,4-trimethyl-5H-[1,2,4]triazolo[4,3-a]quinoxaline] here?
Answer: 1 to 15 µM

Question: Which IC50 or EC50 (agonist or antagonist mode not specified) does the source give for `CCc1c(-c2cc(F)cc3c2ccn3S(C)(=O)=O)c(F)cc2c1-n1c(C)nnc1C(C)(C)N2` [Example 46, 9-Ethyl-7-fluoro-8-(6-fluoro-1-methylsulfonyl-1H-indol-4-yl)-1,4,4-trimethyl-5H-[1,2,4]triazolo[4,3-a]quinoxaline] here?
Answer: < 0.1 µM

Question: `Cc1nnc2n1-c1c(cc(F)c(-c3cccc4c3cnn4S(C)(=O)=O)c1C(F)F)NC2(C)C` [Example 382, 9-(Difluoro-methyl)-7-fluoro-1,4,4-trimethyl-8-(1-methylsulfonyl-1H-indazol-4-yl)-5H-[1,2,4]triazolo[4,3-a]quinoxaline] was tested. Which IC50 or EC50 (agonist or antagonist mode not specified) did it give?
Answer: 1 to 15 µM

Question: Which IC50 or EC50 (agonist or antagonist mode not specified) does the source give for `COc1cc(-c2c(F)cc3c(c2C)-n2c(C)nnc2C(C)(C)N3)c2ccn(S(C)(=O)=O)c2c1` [Example 537, 7-Fluoro-8-(6-methoxy-1-methylsulfonyl-1H-indol-4-yl)-1,4,4,9-tetramethyl-5H-[1,2,4] triazolo[4,3-a]quinoxaline] here?
Answer: 0.1 to 1 µM

Question: `Cc1nnc2n1-c1c(cc(F)c(-c3ccc(F)c4c3ccn4S(C)(=O)=O)c1C(F)(F)F)NC2(C)C` [Example 484, 7-Fluoro-8-(7-fluoro-1-methyl-sulfonyl-1H-indol-4-yl)-1,4,4-trimethyl-9-(trifluoromethyl)-5H-[1,2,4]triazolo[4,3-a]quinoxaline] was tested. Which IC50 or EC50 (agonist or antagonist mode not specified) did it give?
Answer: 0.1 to 1 µM

Question: How did the IC50 or EC50 (agonist or antagonist mode not specified) turn out when `Cc1c[nH]c2c(-c3c(OC(F)F)cc4c(c3F)-n3c(C)nnc3C(C)(C)N4)cccc12` [Example 282, 7-(Difluoro-methoxy)-9-fluoro-1,4,4-trimethyl-8-(3-methyl-1H-indol-7-yl)-5H-[1,2,4]triazolo[4,3-a]quinoxaline] was run?
Answer: 0.1 to 1 µM

Question: For `COc1cc2c(c(F)c1-c1cccc3[nH]ccc13)-n1c(C)nnc1C(C)(C)N2` [Example 256, 9-Fluoro-8-(1H-indol-4-yl)-7-methoxy-1,4,4-trimethyl-5H-[1,2,4]triazolo[4,3-a]quinoxaline], which IC50 or EC50 (agonist or antagonist mode not specified) is on record?
Answer: 1 to 15 µM

Question: `Cc1c(-c2cccc3c2ccn3S(C)(=O)=O)c(Cl)cc2c1-n1c(C)nnc1C(C)(C)N2` [Example 317, 7-Chloro-1,4,4,9-tetramethyl-8-(1-methylsulfonyl-1H-indol-4-yl)-5H-[1,2,4]triazolo[4,3-a]quinoxaline] was tested. Which IC50 or EC50 (agonist or antagonist mode not specified) did it give?
Answer: 1 to 15 µM

Question: For `Cc1c(-c2cc(F)cc3c2ccn3S(C)(=O)=O)c(OC(F)F)cc2c1-n1c(C)nnc1C(C)(C)N2` [Example 335, 7-(Difluoro-methoxy)-8-(6-fluoro-1-methylsulfonyl-1H-indol-4-yl)-1,4,4,9-tetramethyl-5H-[1,2,4] triazolo[4,3-a]quinoxaline], which IC50 or EC50 (agonist or antagonist mode not specified) is on record?
Answer: 0.1 to 1 µM

Question: For `Cc1nnc2n1-c1c(cc(F)c(-c3cccc4c3cnn4C)c1C(F)F)NC2(C)C` [Example 294, 9-(Difluoro-methyl)-7-fluoro-1,4,4-trimethyl-8-(1-methyl-1H-indazol-4-yl)-5H-[1,2,4]triazolo[4,3-a]quinoxaline], which IC50 or EC50 (agonist or antagonist mode not specified) is on record?
Answer: < 0.1 µM

Question: Which IC50 or EC50 (agonist or antagonist mode not specified) does the source give for `Cc1nnc2n1-c1c(cc(F)c(-c3cccc4c3ccn4S(C)(=O)=O)c1C(F)F)NC2(C)C` [Example 315, 9-(Difluoro-methyl)-7-fluoro-1,4,4-trimethyl-8-(1-methylsulfonyl-1H-indol-4-yl)-5H-[1,2,4]triazolo[4,3-a]quinoxaline] here?
Answer: 0.1 to 1 µM

Question: How did the IC50 or EC50 (agonist or antagonist mode not specified) turn out when `COc1c(-c2cccc3c(C)c[nH]c23)c(F)cc2c1-n1c(C)nnc1C(C)(C)N2` [Example 270, 7-Fluoro-9-methoxy-1,4,4-trimethyl-8-(3-methyl-1H-indol-7-yl)-5H-[1,2,4]triazolo[4,3-a]quinoxaline] was run?
Answer: 0.1 to 1 µM

Question: `Cc1nnc2n1-c1c(cc(F)c(-c3cc(F)cc4c3ccn4C3CC3)c1C(F)(F)F)NC2(C)C` [Example 88, 8-(1-Cyclopropyl-6-fluoro-1H-indol-4-yl)-7-fluoro-1,4,4-trimethyl-9-(trifluoromethyl)-5H-[1,2,4]triazolo[4,3-a]quinoxaline] was tested. Which IC50 or EC50 (agonist or antagonist mode not specified) did it give?
Answer: < 0.1 µM
